Assay results as given in ChEMBL document CHEMBL5727581, “Triazole DAGLα inhibitors” (2020).

Experiments:
[1] = target: T1, Diacylglycerol lipase-alpha (Homo sapiens, UniProt Q9Y4D2); assay: (§1) In Vitro Inhibition of DAGL: Briefly, membrane proteome (1 mg/ml, 20 μL) was prepared from HEK293T cells (transiently transfected with hDAGLα-FLAG or hDAGLα-S472A-FLAG, hDAGLβ-FLAG or hDAGLβ-S443A-FLAG) as described in Example 16. The proteome was incubated at room temperature with vehicle (DMSO) or compound in 0.5 μL DMSO for 30 min. The membrane proteome sample was subsequently treated for 30 min with HT-01 probe (1 μM) or FP-Rh probe (1 μM). The reactions were quenched with 10 μL 3× Laemmli sample buffer (final concentrations: 60 mM Tris-Cl pH 6.8, 2% (w/v) SDS, 10% (v/v) glycerol, 5% (v/v) (3-mercaptoethanol, 0.01% (v/v) bromophenol blue). The samples were directly loaded and resolved on SDS page gel (10% acrylamide). The gels were scanned using a ChemiDoc MP system (Cy3 settings, 605/50 filter).The resolved proteins were transferred from the gels to a polyvinyldifluoride membrane for Western Blotting using a Trans-Blot® Turbo (BioRad). FLAG-tagged enzymes were stained using rabbit anti-FLAG as primary antibody, and goat-anti-rabbit HRP as secondary antibody. The blot was developed in the dark using a 10 mL luminal solution, 100 μL ECL enhancer and 3 μL H2O2. Chemiluminescence was visualized using a ChemiDoc XRS (BioRad).The percentage of DAGL activity remaining in the assayed samples was determined by measuring the integrated optical intensity of the fluorescent protein bands of the Western Blot using image lab 4.1. The relative intensity was compared to the vehicle (DMSO) treated proteins, which were set to 100%. IC50 values were determined by plotting a log(inhibitor) vs. normalized response (Variable slope) dose-response curve generated using Prism software (GraphPad).
T1 sequence (Q9Y4D2 whole entry): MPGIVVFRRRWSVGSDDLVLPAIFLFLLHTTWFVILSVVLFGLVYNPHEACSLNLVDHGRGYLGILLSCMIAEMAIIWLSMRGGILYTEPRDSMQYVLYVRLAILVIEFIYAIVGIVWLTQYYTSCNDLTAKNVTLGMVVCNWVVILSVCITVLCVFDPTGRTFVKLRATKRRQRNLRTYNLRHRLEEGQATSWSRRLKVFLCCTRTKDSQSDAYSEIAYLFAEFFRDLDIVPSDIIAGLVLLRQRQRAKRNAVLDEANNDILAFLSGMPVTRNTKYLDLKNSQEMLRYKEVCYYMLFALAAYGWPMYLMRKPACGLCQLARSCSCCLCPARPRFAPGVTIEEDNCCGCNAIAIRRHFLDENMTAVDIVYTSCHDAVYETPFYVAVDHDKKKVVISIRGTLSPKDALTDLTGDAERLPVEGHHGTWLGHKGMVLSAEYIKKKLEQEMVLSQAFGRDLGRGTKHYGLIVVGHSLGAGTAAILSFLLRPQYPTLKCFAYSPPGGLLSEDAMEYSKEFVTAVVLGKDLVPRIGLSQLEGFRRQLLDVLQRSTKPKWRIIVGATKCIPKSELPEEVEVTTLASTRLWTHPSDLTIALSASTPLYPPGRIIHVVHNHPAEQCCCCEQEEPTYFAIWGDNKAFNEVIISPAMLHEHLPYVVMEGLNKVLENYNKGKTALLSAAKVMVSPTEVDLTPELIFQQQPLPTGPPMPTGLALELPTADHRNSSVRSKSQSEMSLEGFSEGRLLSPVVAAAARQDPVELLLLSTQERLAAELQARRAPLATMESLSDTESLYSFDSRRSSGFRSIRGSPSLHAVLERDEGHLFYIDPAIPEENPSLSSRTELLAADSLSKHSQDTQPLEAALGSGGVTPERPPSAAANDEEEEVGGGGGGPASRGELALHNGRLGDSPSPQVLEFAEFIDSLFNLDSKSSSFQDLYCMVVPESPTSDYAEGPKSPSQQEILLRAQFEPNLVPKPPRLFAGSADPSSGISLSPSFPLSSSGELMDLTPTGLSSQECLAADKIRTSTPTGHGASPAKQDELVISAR

[2] = target: T2, Diacylglycerol lipase-beta (Homo sapiens, UniProt Q8NCG7); assay: as §1
T2 sequence (Q8NCG7 whole entry): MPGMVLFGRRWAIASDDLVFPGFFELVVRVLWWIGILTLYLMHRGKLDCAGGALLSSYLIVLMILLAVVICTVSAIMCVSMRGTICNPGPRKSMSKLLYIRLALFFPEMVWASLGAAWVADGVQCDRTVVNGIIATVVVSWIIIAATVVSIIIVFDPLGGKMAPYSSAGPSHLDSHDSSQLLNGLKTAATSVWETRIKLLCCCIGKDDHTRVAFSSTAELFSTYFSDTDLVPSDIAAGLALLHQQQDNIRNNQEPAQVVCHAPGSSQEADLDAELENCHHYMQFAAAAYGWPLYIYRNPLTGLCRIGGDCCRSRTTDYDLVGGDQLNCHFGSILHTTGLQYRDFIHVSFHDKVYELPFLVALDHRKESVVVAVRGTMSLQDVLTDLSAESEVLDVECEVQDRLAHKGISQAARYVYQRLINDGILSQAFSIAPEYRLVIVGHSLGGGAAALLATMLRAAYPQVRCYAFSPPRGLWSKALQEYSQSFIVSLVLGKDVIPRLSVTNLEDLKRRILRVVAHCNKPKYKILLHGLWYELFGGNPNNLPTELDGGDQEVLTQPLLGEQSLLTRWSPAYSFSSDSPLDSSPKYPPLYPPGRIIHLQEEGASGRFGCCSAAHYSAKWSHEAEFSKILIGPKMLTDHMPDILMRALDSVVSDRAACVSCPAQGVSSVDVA

Row | SMILES | IC50 [1] [nM] | IC50 [2] [nM]
1 | CCC(CC)CN(CCc1ccccc1)C(=O)n1cc(-c2ccc(OC(F)(F)F)cc2)nn1 | < 400 | < 400
2 | CCC(CC)CN(CCc1ccccc1)C(=O)n1ncc(-c2ccc(OC(F)(F)F)cc2)n1 | – | < 400
